What all share (test): NCI anticancer screen, dose series, 48 h
The subject of experiment [1] is BT-549 breast.
Experiment [2] relates to MDA-MB-231 breast.
In experiment [3] the test system is UACC-257 melanoma.
Experiment [4] has as its system U251 CNS.
The subject of experiment [5] is PC-3 prostate.
Experiment [6] concerns A498 renal.
Experiment [7] deals with TK-10 renal.
Experiment [8] has as its system MDA-MB-435.
Experiment [9] relates to NCI-H23 lung.
The test system of experiment [10] is K-562 leukemia.

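Exposure lasted 48 hours, with cells grown in 96-well plates and compounds tested at five concentrations. Abbreviation: GI50, concentration required for 50% inhibition of growth. TGI: concentration producing complete growth inhibition.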

Consider `COc1ccc(CC(CO)NC(=O)OCc2ccccc2)cc1Oc1ccc(CC(CO)NC(=O)OCc2ccccc2)cc1` (stereo unspecified), for which the TGI in experiment [1] was 32.3 µM; in [2], 36 µM; in experiment [3], 61.4 µM; in [4] it was 63.9 µM; in experiment [5], 27.1 µM; in experiment [6], 34.9 µM. The TGI is 41.5 µM in [7], > 100 µM in experiment [8] and 33.8 µM in [9].

`CC(C)(C)C1=Cc2cc3cc(C(C)(C)C)[nH]c(=O)c3cc2S(=O)(=O)N1`: the TGI in experiment [10] was > 100 µM; in experiment [3] it was 58.7 µM; in experiment [4], 34 µM; in experiment [6], > 100 µM; in experiment [7] it was 88.3 µM; in [9] it was 85.3 µM.

For `CC(C)(C)N=c1n(C(C)(C)C)oc(=O)n1C(C)(C)C`, the TGI in experiment [10], in experiment [1], in [2], in experiment [3], in [4] and in experiment [5] was > 100 µM each time. For the same compound, the TGI in experiment [6], in experiment [7] and in experiment [9] was > 100 µM each time.

Turning to `C/C(=C\c1ccccc1)C(=O)CCN1CCOCC1`, the TGI was > 69.7 µM in [10]; 30.6 µM in experiment [3]; 30.7 µM in experiment [4]; > 100 µM in experiment [6]; 32 µM in experiment [9].

Turning to `CN(C)C(CN)CC1=C(CC(CN)N(C)C)CCC1` (stereo unspecified), the TGI in experiment [10], in experiment [3], in [4], in experiment [6] and in experiment [9] was > 100 µM in each case.

Consider `CC(=O)OC[C@]1(C(=O)C(O)c2ccoc2)[C@H](C)CC[C@@]23COC(=O)C2=CCC[C@@H]31` (stereo partly specified), for which the TGI in experiment [1], in experiment [2], in experiment [3], in [4], in experiment [5] and in [6] was > 10 µM in each case. The TGI in [7], in [8] and in experiment [9] was > 10 µM throughout.

Take `NC(=O)C(=O)N/N=C1/c2ccccc2CC1C1(O)C(=O)Nc2c(Cl)cc(Cl)cc21` (stereo unspecified): the TGI in experiment [10], in experiment [3], in [4], in experiment [6], in experiment [7] and in experiment [9] was > 100 µM throughout.

As for `N#Cc1nc(-c2cc([N+](=O)[O-])cc([N+](=O)[O-])c2)oc1N`, the TGI in experiment [10], in [1], in experiment [2], in [3], in experiment [5] and in experiment [7] was > 10 µM in each case. For the same compound, the TGI in [8] and in experiment [9] was > 10 µM throughout.

For the compound `CCOC(=O)C1=C(C(C)=O)CSC(c2ccccc2)=N1`, the TGI in experiment [10], in experiment [3], in experiment [4], in [6] and in experiment [9] was > 100 µM throughout.

On to `CCOC(=O)c1[nH]cc(C)c1-c1ccn(-c2ccccc2)c1`, for which the TGI in [10] was 51 µM; in experiment [1], > 100 µM; in [3], > 100 µM; in experiment [4] it was > 100 µM; in experiment [5] it was > 100 µM; in experiment [6], > 100 µM. Besides, the TGI in [7], in [8] and in experiment [9] was > 100 µM throughout.

In the case of `C/C(=N/NC(N)=S)c1ccc2ccccc2c1`, the TGI is > 100 µM in experiment [3]; 80.4 µM in [4]; > 100 µM in [6]; > 100 µM in [7]; > 100 µM in experiment [9].

As for `CCOP(=O)(OCC)C1C(CO)OC(n2ccc(=O)[nH]c2=O)C1O` (stereo unspecified), the TGI in experiment [10], in experiment [1], in [2], in [3], in experiment [5] and in experiment [6] was > 100 µM in each case. Also, the TGI in [7] is > 100 µM.

With `CCC1=CCC23C(=O)C=CC(=O)C2(C1)C(=O)c1cccc(OC)c1C3=O` (stereo unspecified), the TGI in experiment [10] came to 72.4 µM; in experiment [2] it was 29.8 µM; in experiment [3], 30.1 µM; in [4], 61.8 µM; in experiment [5] it was 28.4 µM; in [7] it was 33.5 µM. The TGI in experiment [8] was 30.8 µM; in experiment [9], 46.4 µM.

Take `COCOc1ccc(OC)cc1`: the TGI in experiment [10], in [3], in experiment [4], in [6] and in [9] was > 100 µM in each case.

Take `N#Cc1c(-c2ccccc2)/c(=C\Nc2ccc(Cl)cc2)c(=O)n2c1nc1ccccc12`: the TGI in experiment [1], in [2], in [3], in experiment [4], in experiment [5] and in experiment [6] was > 100 µM each time. Further, the TGI in experiment [7], in experiment [8] and in [9] was > 100 µM in each case.

As for `Oc1ccc(-c2nnc3sc(-c4ccc(F)cc4)nn23)cc1`, the GI50 in [10] was > 100 µM; in [2], 10.6 µM; in [3], > 100 µM; in experiment [4], 17.3 µM; in experiment [5] it was > 100 µM; in experiment [7], 69.8 µM. Further, the values for the GI50 in [8] and in experiment [9] were > 100 µM and 27.8 µM, respectively. Also, the TGI is > 100 µM in [10]; 46.8 µM in experiment [2]; > 100 µM in experiment [3]; 41.9 µM in experiment [4]; > 100 µM in experiment [5]; > 100 µM in experiment [7]. In addition, the TGI is > 100 µM in experiment [8] and 84.9 µM in [9].

Take `O=C(NC(Cc1c[nH]c2ccccc12)C(=O)O)/C(=C/c1ccccc1O)NC(=O)c1ccccc1` (stereo unspecified): the TGI was > 100 µM in [10]; 52.5 µM in experiment [1]; 65 µM in [2]; > 100 µM in experiment [3]; > 100 µM in experiment [4]; > 100 µM in experiment [6]. For the same compound, the TGI in experiment [7], in experiment [8] and in experiment [9] was > 100 µM throughout.

For the compound `COc1cc(/C=C/C(=O)O)ccc1C(=O)O/C=C/c1ccccc1`, the TGI in [10], in [3], in experiment [4], in [6] and in experiment [9] was > 100 µM throughout.

Consider `CCSC1=CC(=O)c2nc3ccccc3c3ccnc1c23`, for which the TGI in [1] is 26.3 µM; in experiment [2] it was 31.8 µM; in [3] it was 4.19 µM; in [4], 14.5 µM; in experiment [5], > 23.3 µM; in [7], 26.5 µM. Besides, the TGI in experiment [8] amounted to 3.43 µM; in experiment [9] it was 11.4 µM.

For `CCN(CC)CCOC(NC(C)=O)(c1ccccc1)c1ccccc1`, the TGI in experiment [2], in [3], in experiment [4], in [6], in [7] and in experiment [8] was > 100 µM in each case. Besides, in [9], the TGI is > 100 µM.

Consider `CC(C)=C[C@@H]1C[C@H](n2cc(C)c(=O)[nH]c2=O)ON1CCO`, for which the TGI in experiment [10], in [2], in experiment [3], in experiment [4], in [5] and in experiment [6] was > 100 µM throughout. For the same compound, the TGI in experiment [7] and in experiment [8] was > 100 µM throughout.

`Cc1cc(-c2nc3c(O)cccc3s2)ccc1N`: the TGI was > 100 µM in experiment [10]; 58.3 µM in experiment [1]; 61.7 µM in [2]; 57.6 µM in [3]; > 100 µM in [4]; 52.6 µM in experiment [5]. Besides, the TGI in [7] is 74.8 µM; in experiment [8], 38.2 µM; in experiment [9] it was 89.4 µM.

Consider `CSCCC(NCc1c(O)ccc2c(-c3ccccc3)cc(=O)oc12)C(=O)O` (stereo unspecified), for which the TGI in experiment [10], in experiment [2], in [3], in [4], in experiment [5] and in experiment [7] was > 100 µM throughout. For the same compound, the TGI in experiment [8] and in experiment [9] was > 100 µM throughout.

With `COc1cc2c(cc1OC)C1c3ccccc3CCN1CC2` (stereo unspecified), the TGI in experiment [10], in experiment [2], in experiment [3], in [4], in experiment [5] and in [6] was > 100 µM each time. In addition, the TGI in experiment [7], in experiment [8] and in experiment [9] was > 100 µM each time.

With `COc1ccc(N[C@H](CSc2ccc(C)cc2)c2ccc(F)cc2)cc1`, the TGI in experiment [10], in experiment [1], in experiment [2], in experiment [3], in [4] and in [5] was > 100 µM in each case. The TGI in experiment [7], in [8] and in experiment [9] was > 100 µM in each case.

Regarding `O=C(Nc1cccc2cnccc12)c1cc2c(cc1Cl)Sc1nccn1S2(=O)=O`, the TGI in experiment [10] was > 100 µM; in [1], 40.2 µM; in experiment [2], 36.5 µM; in [3], 45.1 µM; in experiment [4], 32.1 µM; in experiment [5], > 100 µM. Further, the TGI amounted to 59.2 µM in [7], 34.1 µM in experiment [8] and 28.6 µM in experiment [9].

Consider `O=C1NCCCc2nonc21`, for which the TGI in [10], in experiment [2], in experiment [3], in experiment [4], in experiment [5] and in experiment [7] was > 100 µM each time. The TGI in experiment [8] and in experiment [9] was > 100 µM in each case.

With `COC(=O)c1ccccc1/C=C1/Cc2ccccc2C1=O`, the TGI in experiment [10] was > 100 µM; in [2], > 100 µM; in [3], 68.1 µM; in experiment [4], 94.9 µM; in experiment [5], > 100 µM; in experiment [6], > 100 µM. For the same compound, the TGI in experiment [7], in [8] and in experiment [9] was > 100 µM in each case.

With `CC(=O)OC(C)c1cc2c(s1)C(=O)c1sccc1C2=O` (stereo unspecified), the TGI was > 100 µM in experiment [10]; 1.68 µM in experiment [1]; 16.8 µM in experiment [2]; 0.441 µM in [3]; 4.4 µM in [4]; 14.2 µM in experiment [5]. The TGI was 4.59 µM in experiment [6], 3.86 µM in experiment [7] and 0.546 µM in experiment [9].

Turning to `CCC12C[N+]3([O-])CCc4c([nH]c5ccccc45)C(C(=O)OC)(c4cc5c(cc4OC)N(C)C4C(O)(C(=O)OC)C(OC(C)=O)C6(CC)C=CCN7CCC54C76)CC(C3)C1O2` (stereo unspecified), the TGI is 6.28 µM in experiment [10]; 35.1 µM in experiment [3]; 86.1 µM in experiment [4]; 18 µM in experiment [6]; 26.8 µM in [7]; 8.49 µM in [9].

As for `COc1cc(C2c3cc4c(cc3OC(NN=C(C)C)C2C)OCO4)cc(OC)c1O` (stereo unspecified), the TGI in experiment [1], in experiment [2], in experiment [3], in experiment [4], in experiment [5] and in experiment [7] was > 100 µM each time. In experiment [9], the TGI is > 100 µM.

Take `CCN(CC)CCNc1ccc2nnn3c4ccc(OC)cc4c(=O)c1c23`: the TGI in [10] stood at 20.1 µM; in [3] it was 25.1 µM; in experiment [4] it was 22.3 µM; in experiment [6], 27 µM; in [7] it was 23.9 µM; in experiment [9], 20.9 µM.

In the case of `Nc1c2ccccc2nc2c1ccc1ncccc12`, the TGI is 88.6 µM in [10]; > 100 µM in [1]; 96.1 µM in [2]; > 100 µM in [3]; > 100 µM in experiment [4]; > 100 µM in experiment [5]. For the same compound, the TGI was > 100 µM in experiment [7], > 100 µM in [8] and 75.6 µM in experiment [9].

Values taken from PubChem BioAssay (NCI).
